Reference: ChEMBL document CHEMBL3885881, “DrugMatrix”

Species on record: Rattus norvegicus
Assay: DrugMatrix - Regimen: Daily Repeat
Format: toxicity, organism-based, Sprague-Dawley
Parameters: regimen Daily Repeat, gender Male, age 6-8 weeks
Settings: in vivo, po, route oral GAVAGE, vehicle .5 % CMC; for ABSOLUTE BASOPHIL / ABSOLUTE EOSINOPHIL / ABSOLUTE LYMPHOCYTE / ABSOLUTE MONOCYTE / ABSOLUTE SEGMENTED NEUTROPHIL / BASOPHIL / EOSINOPHIL / ERYTHROCYTE COUNT / HEMATOCRIT / HEMOGLOBIN / LEUKOCYTE COUNT / LYMPHOCYTE / MEAN CORPUSCULAR HEMOGLOBIN / MEAN CORPUSCULAR HEMOGLOBIN CONCENTRATION / MEAN CORPUSCULAR VOLUME / MONOCYTE / NEUTROPHIL / NUCLEATED RED BLOOD CELLS / PLATELET COUNT: tissue Blood; for ALANINE AMINOTRANSFERASE / ALBUMIN / ALKALINE PHOSPHATASE / ASPARTATE AMINOTRANSFERASE / BLOOD UREA NITROGEN / CARBON DIOXIDE / CHLORIDE / CHOLESTEROL / CREATINE PHOSPHOKINASE / CREATININE / GLUCOSE / LACTATE DEHYDROGENASE / LIPASE / PHOSPHORUS / POTASSIUM / SODIUM / TOTAL BILIRUBIN / TOTAL PROTEIN / URIC ACID: tissue Plasma
[1] = 20 mg/kg, 72 h, dose level Low, time 3 day
[2] = 20 mg/kg, 120 h, dose level Low, time 5 day
[3] = 600 mg/kg, 72 h, dose level High, time 3 day
[4] = 600 mg/kg, 120 h, dose level High, time 5 day

CC(C)CN(C[C@@H](O)[C@H](Cc1ccccc1)NC(=O)O[C@H]1CCOC1)S(=O)(=O)c1ccc(N)cc1
ABSOLUTE BASOPHIL [1]: 0 CELLS/uL
ABSOLUTE EOSINOPHIL [1]: 148.67 CELLS/uL
ABSOLUTE LYMPHOCYTE [1]: 12756.67 CELLS/uL
ABSOLUTE MONOCYTE [1]: 107.67 CELLS/uL
ABSOLUTE SEGMENTED NEUTROPHIL [1]: 887 CELLS/uL
BASOPHIL [1]: 0%
EOSINOPHIL [1]: 1%
ERYTHROCYTE COUNT [1]: 5.52 x10E6/uL
HEMATOCRIT [1]: 35.2%
HEMOGLOBIN [1]: 13.3 G/DL
LEUKOCYTE COUNT [1]: 13.9 x10E3/uL
LYMPHOCYTE [1]: 91.67%
MEAN CORPUSCULAR HEMOGLOBIN [1]: 24.17 pg
MEAN CORPUSCULAR HEMOGLOBIN CONCENTRATION [1]: 37.8 G/DL
MEAN CORPUSCULAR VOLUME [1]: 63.87 fL
MONOCYTE [1]: 0.67%
NEUTROPHIL [1]: 6.67%
NUCLEATED RED BLOOD CELLS [1]: 0 /100WBC
PLATELET COUNT [1]: 1248.33 x10E3/uL
ALANINE AMINOTRANSFERASE [1]: 50 u/L
ALBUMIN [1]: 4.23 G/DL
ALKALINE PHOSPHATASE [1]: 362 u/L
ASPARTATE AMINOTRANSFERASE [1]: 76.33 u/L
BLOOD UREA NITROGEN [1]: 16.33 mg/dL
CARBON DIOXIDE [1]: 26 mmol/L
CHLORIDE [1]: 102 MEQ/L
CHOLESTEROL [1]: 67 mg/dL
CREATINE PHOSPHOKINASE [1]: 172.67 u/L
CREATININE [1]: 0.21 mg/dL
GLUCOSE [1]: 169.67 mg/dL
LACTATE DEHYDROGENASE [1]: 136.67 u/L
LIPASE [1]: 8 u/L
PHOSPHORUS [1]: 12.83 mg/dL
POTASSIUM [1]: 6.23 MEQ/L
SODIUM [1]: 144.7 MEQ/L
TOTAL BILIRUBIN [1]: 0.17 mg/dL
TOTAL PROTEIN [1]: 6.07 G/DL
URIC ACID [1]: 1.83 mg/dL
ABSOLUTE BASOPHIL [2]: 0 CELLS/uL
ABSOLUTE EOSINOPHIL [2]: 74 CELLS/uL
ABSOLUTE LYMPHOCYTE [2]: 7729 CELLS/uL
ABSOLUTE MONOCYTE [2]: 39.33 CELLS/uL
ABSOLUTE SEGMENTED NEUTROPHIL [2]: 524.33 CELLS/uL
BASOPHIL [2]: 0%
EOSINOPHIL [2]: 1%
ERYTHROCYTE COUNT [2]: 5.73 x10E6/uL
HEMATOCRIT [2]: 35.57%
HEMOGLOBIN [2]: 13.37 G/DL
LEUKOCYTE COUNT [2]: 8.37 x10E3/uL
LYMPHOCYTE [2]: 92%
MEAN CORPUSCULAR HEMOGLOBIN [2]: 23.33 pg
MEAN CORPUSCULAR HEMOGLOBIN CONCENTRATION [2]: 37.63 G/DL
MEAN CORPUSCULAR VOLUME [2]: 62.13 fL
MONOCYTE [2]: 0.33%
NEUTROPHIL [2]: 6.67%
NUCLEATED RED BLOOD CELLS [2]: 0 /100WBC
PLATELET COUNT [2]: 1179.33 x10E3/uL
ALANINE AMINOTRANSFERASE [2]: 54.33 u/L
ALBUMIN [2]: 4.43 G/DL
ALKALINE PHOSPHATASE [2]: 421.33 u/L
ASPARTATE AMINOTRANSFERASE [2]: 83 u/L
BLOOD UREA NITROGEN [2]: 14.33 mg/dL
CARBON DIOXIDE [2]: 28.33 mmol/L
CHLORIDE [2]: 101 MEQ/L
CHOLESTEROL [2]: 68 mg/dL
CREATINE PHOSPHOKINASE [2]: 229.67 u/L
CREATININE [2]: 0.2 mg/dL
GLUCOSE [2]: 141 mg/dL
LACTATE DEHYDROGENASE [2]: 108 u/L
LIPASE [2]: 8.67 u/L
PHOSPHORUS [2]: 12.47 mg/dL
POTASSIUM [2]: 6.58 MEQ/L
SODIUM [2]: 146.5 MEQ/L
TOTAL BILIRUBIN [2]: 0.2 mg/dL
TOTAL PROTEIN [2]: 6.3 G/DL
URIC ACID [2]: 1.3 mg/dL
ABSOLUTE BASOPHIL [3]: 0 CELLS/uL
ABSOLUTE EOSINOPHIL [3]: 50.33 CELLS/uL
ABSOLUTE LYMPHOCYTE [3]: 11050.67 CELLS/uL
ABSOLUTE MONOCYTE [3]: 72.33 CELLS/uL
ABSOLUTE SEGMENTED NEUTROPHIL [3]: 1093.33 CELLS/uL
BASOPHIL [3]: 0%
EOSINOPHIL [3]: 0.33%
ERYTHROCYTE COUNT [3]: 5.53 x10E6/uL
HEMATOCRIT [3]: 35.5%
HEMOGLOBIN [3]: 13.6 G/DL
LEUKOCYTE COUNT [3]: 12.27 x10E3/uL
LYMPHOCYTE [3]: 89.67%
MEAN CORPUSCULAR HEMOGLOBIN [3]: 24.57 pg
MEAN CORPUSCULAR HEMOGLOBIN CONCENTRATION [3]: 38.27 G/DL
MEAN CORPUSCULAR VOLUME [3]: 64.1 fL
MONOCYTE [3]: 0.67%
NEUTROPHIL [3]: 9.33%
NUCLEATED RED BLOOD CELLS [3]: 0 /100WBC
PLATELET COUNT [3]: 1258 x10E3/uL
ALANINE AMINOTRANSFERASE [3]: 56.67 u/L
ALBUMIN [3]: 4.33 G/DL
ALKALINE PHOSPHATASE [3]: 381 u/L
ASPARTATE AMINOTRANSFERASE [3]: 116.67 u/L
BLOOD UREA NITROGEN [3]: 16 mg/dL
CARBON DIOXIDE [3]: 25 mmol/L
CHLORIDE [3]: 107.33 MEQ/L
CHOLESTEROL [3]: 69 mg/dL
CREATINE PHOSPHOKINASE [3]: 1567.67 u/L
CREATININE [3]: 0.18 mg/dL
GLUCOSE [3]: 194.33 mg/dL
LACTATE DEHYDROGENASE [3]: 164.67 u/L
LIPASE [3]: 8.67 u/L
PHOSPHORUS [3]: 14.17 mg/dL
POTASSIUM [3]: 6.64 MEQ/L
SODIUM [3]: 145.83 MEQ/L
TOTAL BILIRUBIN [3]: 0.23 mg/dL
TOTAL PROTEIN [3]: 5.97 G/DL
URIC ACID [3]: 2.07 mg/dL
ABSOLUTE BASOPHIL [4]: 0 CELLS/uL
ABSOLUTE EOSINOPHIL [4]: 292.33 CELLS/uL
ABSOLUTE LYMPHOCYTE [4]: 15254.33 CELLS/uL
ABSOLUTE MONOCYTE [4]: 69 CELLS/uL
ABSOLUTE SEGMENTED NEUTROPHIL [4]: 1517.67 CELLS/uL
BASOPHIL [4]: 0%
EOSINOPHIL [4]: 1.67%
ERYTHROCYTE COUNT [4]: 5.48 x10E6/uL
HEMATOCRIT [4]: 34.63%
HEMOGLOBIN [4]: 13.17 G/DL
LEUKOCYTE COUNT [4]: 17.13 x10E3/uL
LYMPHOCYTE [4]: 88.67%
MEAN CORPUSCULAR HEMOGLOBIN [4]: 24.03 pg
MEAN CORPUSCULAR HEMOGLOBIN CONCENTRATION [4]: 38 G/DL
MEAN CORPUSCULAR VOLUME [4]: 63.2 fL
MONOCYTE [4]: 0.33%
NEUTROPHIL [4]: 9.33%
NUCLEATED RED BLOOD CELLS [4]: 0 /100WBC
PLATELET COUNT [4]: 1347.67 x10E3/uL
ALANINE AMINOTRANSFERASE [4]: 41.67 u/L
ALBUMIN [4]: 4.2 G/DL
ALKALINE PHOSPHATASE [4]: 390 u/L
ASPARTATE AMINOTRANSFERASE [4]: 76.33 u/L
BLOOD UREA NITROGEN [4]: 15.67 mg/dL
CARBON DIOXIDE [4]: 27.33 mmol/L
CHLORIDE [4]: 102.33 MEQ/L
CHOLESTEROL [4]: 58.67 mg/dL
CREATINE PHOSPHOKINASE [4]: 202 u/L
CREATININE [4]: 0.21 mg/dL
GLUCOSE [4]: 161.33 mg/dL
LACTATE DEHYDROGENASE [4]: 95.67 u/L
LIPASE [4]: 8.33 u/L
PHOSPHORUS [4]: 12.93 mg/dL
POTASSIUM [4]: 6.23 MEQ/L
SODIUM [4]: 144.37 MEQ/L
TOTAL BILIRUBIN [4]: 0.17 mg/dL
TOTAL PROTEIN [4]: 6 G/DL
URIC ACID [4]: 1.77 mg/dL
